Data published in ChEMBL document CHEMBL3638904, “Pyridine-2-derivatives as smoothened receptor modulators” (2015).

molecular target: Protein smoothened (Homo sapiens, UniProt Q99835); assay: Radioligand Competition Binding Assay: For the binding competition assay, 100 μL of Assay Buffer was added to all the wells of a 96 well GF/B filter plate (Millipore MultiScreen-HTS-FB cat# MSFBN6B50) for 10 minutes to pre-wet the filter prior to evacuation of the buffer (8 inches Hg for 8 seconds). To the pre-wet wells is added: 20 μL of Assay Buffer, 10 μL diluted test agent, 20 μL of a tritiated Smo antagonist (15 nM stock solution), and 50 μL of membrane preparation (40 μg total protein per well). The plates are sealed and mixed at room temperature for 5 min, incubated at room temperature for 2 hours, then washed 5 times with 100 μL/each of wash buffer and vacuum dried for 8 seconds at 8 inches Hg. The plate is then dried for one hour in a 60° C. oven prior to the addition of 45 μL of Microscint 20 (Packard, #6013621) to each well and incubation at RT for 30 minutes to 1 hour. The plate is counted in a TopCount scintillation counter (Perkin Elmer).
Sequence (Q99835 whole entry): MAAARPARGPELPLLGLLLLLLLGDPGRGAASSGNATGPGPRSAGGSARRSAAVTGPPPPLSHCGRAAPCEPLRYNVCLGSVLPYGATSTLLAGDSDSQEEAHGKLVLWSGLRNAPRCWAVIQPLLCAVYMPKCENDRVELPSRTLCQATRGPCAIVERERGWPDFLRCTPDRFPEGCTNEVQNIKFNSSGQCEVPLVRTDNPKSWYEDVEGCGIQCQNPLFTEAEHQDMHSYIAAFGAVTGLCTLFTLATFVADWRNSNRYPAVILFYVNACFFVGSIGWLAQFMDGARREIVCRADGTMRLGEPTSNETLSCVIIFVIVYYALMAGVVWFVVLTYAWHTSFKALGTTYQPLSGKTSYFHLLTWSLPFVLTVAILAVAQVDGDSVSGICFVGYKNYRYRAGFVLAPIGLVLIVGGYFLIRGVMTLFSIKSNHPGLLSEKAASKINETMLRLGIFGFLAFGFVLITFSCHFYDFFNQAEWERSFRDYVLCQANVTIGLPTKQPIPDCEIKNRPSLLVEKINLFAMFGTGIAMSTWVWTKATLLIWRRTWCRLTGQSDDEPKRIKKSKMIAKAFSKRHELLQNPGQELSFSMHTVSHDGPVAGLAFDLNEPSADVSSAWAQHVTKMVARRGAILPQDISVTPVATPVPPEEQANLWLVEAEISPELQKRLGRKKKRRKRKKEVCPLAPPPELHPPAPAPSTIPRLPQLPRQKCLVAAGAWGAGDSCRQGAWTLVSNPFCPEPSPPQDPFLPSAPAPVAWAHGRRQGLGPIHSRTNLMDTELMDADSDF

Compound | IC50 [nM]
Cc1cccnc1-c1cc(N2CCN(c3ncc(Br)cn3)CC2)ncc1Cl | 40.3
O=C(CCO)NC1CCN(c2ccc(Cl)c(-c3ccccn3)n2)CC1 | 110
Cc1ccc(-c2nc(N3CCN(C(=O)CCS(C)(=O)=O)CC3)ccc2Cl)nc1 | 22.5
Cc1cccnc1-c1cc(N2[C@@H]3CC[C@H]2CN(C(=O)CC(C)(C)O)C3)ncc1Cl | 92.2

Stronger by IC50, values ahead:

IC50 [nM] | Compound
7.11 | Cc1cc(F)cnc1-c1cc(N2CCN(C(=O)CCS(C)(=O)=O)CC2)ncc1Cl
16.5 | O=S(=O)(NC1CCN(c2ccc(Cl)c(-c3ccccn3)n2)CC1)C1CC1
